The results in this text go back to PMC6130872, “Plasmodium vivax Pv12 B-cell epitopes and HLA-DRβ1*-dependent T-cell epitopes in vitro antigenicity” (PLoS ONE, 2018).

For test [1], the target named is T1, HLA-DRβ1*0401 (Homo sapiens, UniProt P01903+P01911, A100K/A169T/F76Y/I96L/K127E/L162R/M171V/N62H/P40V/Q125Y/R42H/S133A/S149N/S66Y/V115G/V209L/W38E).
T1 construct: endogenous in cells; host or cells: IHW09025 homozygous lymphoblastoid B-cell line (IHWG)
The experiment in a line: In vitro HLA-DRβ1 binding assay (competitive ELISA, biotinylated control peptide displacement). Conditions: for inhibition at 250 µM: 24 h, read-out: Binding percentage; for IC50: DRβ1*0401, 50% displacement of biotinylated HA, 4.2 to 250 μM serial dilutions, second order exponential decay fit.

For test [2], the target named is T2, HLA-DRβ1*1101 (Homo sapiens, UniProt P01903+P01911, A100R/A169T/A87E/I96F/K41T/L162R/M171V/P40S/Q125H/Q178H/Q39Y/Q99D/R42S/S66Y/T262R/V115G/W38E).
T2 construct: endogenous in cells; host or cells: IHW09043 homozygous lymphoblastoid B-cell line (IHWG)
T2 sequence (P01903 26-254, other chains not shown): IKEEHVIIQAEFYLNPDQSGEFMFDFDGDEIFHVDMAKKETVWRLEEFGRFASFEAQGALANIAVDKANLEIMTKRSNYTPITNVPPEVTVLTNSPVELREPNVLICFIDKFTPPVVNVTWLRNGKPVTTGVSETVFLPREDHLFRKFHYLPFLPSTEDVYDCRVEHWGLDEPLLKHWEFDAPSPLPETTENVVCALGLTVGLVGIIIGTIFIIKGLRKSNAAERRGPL
In words: biochemical. In kind it is binding. Conditions: for inhibition at 250 µM: 24 h, read-out: Binding percentage; for IC50: DRβ1*1101, 50% displacement of biotinylated HA, 4.2 to 250 μM serial dilutions, second order exponential decay fit.

Test [3] deals with HLA-DRβ1*1302 (Homo sapiens, UniProt P01903+P01911, A100E/A169T/K41T/L162R/M171V/P40S/Q125H/Q178H/Q39Y/Q99D/R42S/S66N/T262R/V115G/W38E/Y61H). In words: biochemical. In kind it is binding. The note with it: for inhibition at 250 µM: 24 h, read-out: Binding percentage; for IC50: 50% displacement of biotinylated TT, 4.2 to 250 μM serial dilutions, second order exponential decay fit.
HLA-DRβ1*1302, sequence (P01903 26-254 limits assumed, other chains not shown): as the sequence (P01903 26-254, other chains not shown) above

Test [4] has as its target HLA-DRβ1*0701 (Homo sapiens, UniProt P01903+P01911, A100R/A102G/A103Q/D57E/D86V/E43K/F76Y/K127E/L162R/M171V/P40G/Q125H/Q99D/R33Q/R42Y/R54Q/S133A/S66F/T210M/V115G/Y107V/Y59L/Y89S). The experiment in a line: biochemical. In kind it is binding. The note with it: for inhibition at 250 µM: 24 h, read-out: Binding percentage; for IC50: 50% displacement of biotinylated TT, 4.2 to 250 μM serial dilutions, second order exponential decay fit.

The subject of test [5] is CD4+ T-lymphocytes (PBMCs). The experiment in a line: Lymphoproliferation assay (CFSE, flow cytometry). In kind it is cell-based, human. How it is done:
P. vivax-exposed individuals and control group PB samples were taken and placed in citrate phosphate dextrose (CPD) solution in Vacutainer tubes (BD Vacutainer); 40 mL blood was used to obtain PBMCs from gradient centrifugation with Ficoll-Paque PLUS (GE Healthcare) to evaluate the proliferative response against Pv12 peptides.
Two hundred thousand (2 x 10^5) PBMCs per well were seeded in 96-well round-bottomed plates (Costar, Corning Incorporated) in RPMI 1640 medium (Gibco) supplemented with inactivated 10% autologous plasma, 2 g/L sodium bicarbonate, 2 mM L-glutamine, 1 mM sodium pyruvate and100 U/mL Antibiotic-Antimycotic solution (all Gibco). The PBMCs were labelled with carboxyfluorescein diacetate N-succinimidyl ester (CFSE) (5μM) (CellTrace CFSE cell proliferation kit, Molecular Probes, Eugene, OR, USA) and stimulated with each peptide at 10 μg/mL final concentration.
Control PBMCs were stimulated with 5 μg/mL parasite lysate and 2% phytohaemagglutinin (PHA) (Sigma) as positive controls. Low binding peptide (LBP) 39115 was used as negative control in experimental binding assays and a well containing PBMCs with just medium (unstimulated) was used as assay control. The cells were cultured at 37°C in a 5% CO2 atmosphere for 96 hours; assays were carried out in duplicate. Pacific Blue-labelled mouse anti-human CD4 (RPA-T4 clone) (BD Biosciences) antibody was then used for labelling the cells which were read on a FACS Canto II flow cytometer (BD Biosciences). FlowJo software v7.6.5 (FlowJo, LLC) was used for analysing the data and CD4^+ T-lymphocyte proliferation.
Cell proliferation was calculated by relative loss regarding CFSE fluorescence intensity, calculated as the percentage of fluorescence intensity of cells co-cultured with antigen divided by the percentage of co-cultured cells’ fluorescence intensity in the absence of antigen. The results were expressed as stimulation index (SI); a ≥2 value was considered positive.
CD4+ lymphocyte mean fluorescence intensity (MFI) values were used for additional analysis. Cell proliferation was calculated as the stimulation rate, where the unstimulated CD4+ T-cell population MFI was divided by the stimulated CD4+ T-cell population’s MFI. MFI becomes less as the antigen stimulates CD4+ T-lymphocytes, whereby ≥1 values indicate cell proliferation. The relative value of proliferation was considered positive, with at least 1% loss in the mean intensity of florescence of the CD4+ population, i.e. ≥1.01.

The mark [6] stands for this setting: 0.1 μM purified molecule, 5 μM biotinylated TT, 250 μM test peptide, 24 h RT, OD 405 nm.

No end group written: not given here.

Regarding EECFLQGFNLSGKKE [Peptide 39113], the inhibition at 250 µM in test [1] came out at 95.8%; in test [2], 62.9%; in test [3] (setting [6]) it was 9.28%; in test [4] (setting [6]), 8.89%. Besides, the IC50 in test [1] was 7.36 µM; in test [2], 38.5 µM.
For GCDFTKNTSPLFTKG [Peptide 39119], the inhibition at 250 µM in test [1] came to 17.4%; in test [2], 26.9%; in test [3] (setting [6]), 92.2%; in test [4] (setting [6]), 29.4%. In test [3], this substance came in with an IC50 of 7.47 µM.
KKSYDDVSFRVPPNL [Peptide 39115]: the Binding percentage turned out to be 12.98% in test [1], 20.02% in test [2], 12.00% in test [3] (setting [6]) and 9.86% in test [4] (setting [6]). In addition, the “control group response (responders/8)” value in test [5] (control group, n = 8) is recorded as 0/8. Moreover, the “frequency of response (responders, SI ≥2)” value in test [5] (exposed individuals) came out at 28%. Further, the “stimulation index (SI), average response” value in test [5] (exposed individuals, peptide 10 μg/mL, lysate 5 μg/mL, 96 h, CFSE, SI ≥2 positive) turned out to be 2.018. The “responders according to relative proliferation values (MFI)” value in test [5] (exposed individuals, positive ≥1.01) stood at 50%.
With KRLVAHFEFATTPDD [Peptide 39122], the inhibition at 250 µM in test [1] turned out to be 80.9%; in test [2], 74.9%; in test [3] (setting [6]), 71.1%; in test [4] (setting [6]) it was 23.1%. Besides, the IC50 in test [1] came out at 58.9 µM; in test [2], 170 µM.
As to LGIIEVLIPSLPKKI [Peptide 39117], the inhibition at 250 µM in test [1] came out at 33.1%; in test [2] it was 51.1%; in test [3] (setting [6]), 95.4%; in test [4] (setting [6]) it was 98.6%. Besides, the results for the IC50 in test [2], in test [3] and in test [4] were 134 µM, 6.65 µM and 11.5 µM, respectively.
As for LTDLVMDHYNKIFYA [Peptide 39120], the inhibition at 250 µM came out at 26.7% in test [1], 32.7% in test [2], 86% in test [3] (setting [6]) and 40.6% in test [4] (setting [6]). In test [3], this substance gave an IC50 of 38 µM.
With LVEYLHGAAAIVKRK [Peptide 39118], the inhibition at 250 µM was 13.5% in test [1], 48.2% in test [2], 31.7% in test [3] (setting [6]) and 90% in test [4] (setting [6]). This substance also showed an IC50 in test [4] of 15.2 µM.
Turning to RKNYELLPNNCFEQV [Peptide 39112], the inhibition at 250 µM in test [1] was determined as 95.8%; in test [2], 55.4%; in test [3] (setting [6]) it was 14.1%; in test [4] (setting [6]) it was 76.4%. Besides, the IC50 in test [1] is 7.26 µM; in test [4], 29.2 µM.
Turning to YNKIFYARVPQRIYQ [Peptide 39114], the IC50 in test [1] came out at 43.2 µM; in test [2] it was 8.28 µM; in test [3], 73.3 µM; in test [4] it was 43.1 µM. In addition, the inhibition at 250 µM in test [3] (setting [6]) was at least 50%.
Take “phytohaemagglutinin [PHA, reference compound]”: the “control group individuals responding” value in test [5] (control group) amounted to 100%. For the same substance, the “frequency of response (responders, SI ≥2)” value in test [5] (exposed individuals) is recorded as 96.6%.
